# From US9956214B2, “5-aminopyrazole-4-carboxamide inhibitors of CDPK1 from T. gondii and C. parvum” (UNIVERSITY OF WASHINGTON THROUGH ITS CENTER FOR …, priority 2013, dated 2018)
# Legend:
# [1] = test system: 24 off-target liabilities (e.g. ion channels, G-protein receptors); experiment: 24 off-target liability screen
# Prkcn = Prkcn (Homo sapiens (Human), UniProt O94806); experiment: Kinase panel selectivity: Prkcn; format: biochemical
# C. parvum Iowa strain = experiment: C. parvum infection in mice (beige/SCID mouse model); settings: oral gavage 20 mg/kg 8 AM and 40 mg/kg 5 PM, days 5-14 after infection; each time point except Days 0 and 3; p ≤0.05
# hERG = hERG (Homo sapiens (Human), UniProt Q12809); experiment: hERG inhibitory activity; format: binding; settings: in words, as compared to compound 9 (1294)
# Chain of hERG (Q12809 whole entry): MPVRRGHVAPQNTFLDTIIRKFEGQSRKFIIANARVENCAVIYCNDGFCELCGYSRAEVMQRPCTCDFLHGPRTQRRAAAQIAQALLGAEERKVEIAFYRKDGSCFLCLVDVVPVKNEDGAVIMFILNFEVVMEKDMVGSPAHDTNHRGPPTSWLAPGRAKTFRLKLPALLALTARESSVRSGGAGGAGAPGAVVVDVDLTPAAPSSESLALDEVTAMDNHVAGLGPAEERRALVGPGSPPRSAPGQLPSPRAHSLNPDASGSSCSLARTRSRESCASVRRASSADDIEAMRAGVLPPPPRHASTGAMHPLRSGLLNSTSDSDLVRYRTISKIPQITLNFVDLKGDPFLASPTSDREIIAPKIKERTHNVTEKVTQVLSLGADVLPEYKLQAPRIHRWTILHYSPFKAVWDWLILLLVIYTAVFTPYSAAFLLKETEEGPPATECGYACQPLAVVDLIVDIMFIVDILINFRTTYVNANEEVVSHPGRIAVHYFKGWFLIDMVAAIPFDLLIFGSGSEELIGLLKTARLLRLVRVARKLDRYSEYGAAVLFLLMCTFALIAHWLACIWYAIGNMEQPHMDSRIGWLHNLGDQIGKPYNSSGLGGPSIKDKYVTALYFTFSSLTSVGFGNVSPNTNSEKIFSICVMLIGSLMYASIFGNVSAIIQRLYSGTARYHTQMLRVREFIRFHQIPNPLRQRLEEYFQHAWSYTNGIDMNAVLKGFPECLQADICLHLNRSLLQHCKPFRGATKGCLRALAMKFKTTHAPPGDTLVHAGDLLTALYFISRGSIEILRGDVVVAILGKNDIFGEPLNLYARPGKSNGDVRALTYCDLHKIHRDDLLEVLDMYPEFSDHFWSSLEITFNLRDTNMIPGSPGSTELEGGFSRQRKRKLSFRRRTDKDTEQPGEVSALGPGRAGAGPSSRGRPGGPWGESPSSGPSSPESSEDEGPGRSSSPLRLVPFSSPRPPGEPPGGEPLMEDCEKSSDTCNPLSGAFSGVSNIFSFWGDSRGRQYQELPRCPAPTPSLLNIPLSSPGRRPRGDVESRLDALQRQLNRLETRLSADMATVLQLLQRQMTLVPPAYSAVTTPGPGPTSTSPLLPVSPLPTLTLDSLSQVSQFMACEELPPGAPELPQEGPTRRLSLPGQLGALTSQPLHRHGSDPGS
# Oral availability = format: in vivo; settings: compared with compound 9 (1294)
# [2] = test system: 80 human protein kinases (hPKs); experiment: AbbVie panel of 80 human protein kinases; format: biochemical; settings: no hPKs inhibited
# Solubility at pH 6.5 = format: physicochemical; settings: in words
# Kdr = Kdr (Homo sapiens (Human), UniProt P35968); experiment: Kinase panel selectivity: Kdr; format: biochemical
# Chain of Kdr (P35968 20-1356, species assumed): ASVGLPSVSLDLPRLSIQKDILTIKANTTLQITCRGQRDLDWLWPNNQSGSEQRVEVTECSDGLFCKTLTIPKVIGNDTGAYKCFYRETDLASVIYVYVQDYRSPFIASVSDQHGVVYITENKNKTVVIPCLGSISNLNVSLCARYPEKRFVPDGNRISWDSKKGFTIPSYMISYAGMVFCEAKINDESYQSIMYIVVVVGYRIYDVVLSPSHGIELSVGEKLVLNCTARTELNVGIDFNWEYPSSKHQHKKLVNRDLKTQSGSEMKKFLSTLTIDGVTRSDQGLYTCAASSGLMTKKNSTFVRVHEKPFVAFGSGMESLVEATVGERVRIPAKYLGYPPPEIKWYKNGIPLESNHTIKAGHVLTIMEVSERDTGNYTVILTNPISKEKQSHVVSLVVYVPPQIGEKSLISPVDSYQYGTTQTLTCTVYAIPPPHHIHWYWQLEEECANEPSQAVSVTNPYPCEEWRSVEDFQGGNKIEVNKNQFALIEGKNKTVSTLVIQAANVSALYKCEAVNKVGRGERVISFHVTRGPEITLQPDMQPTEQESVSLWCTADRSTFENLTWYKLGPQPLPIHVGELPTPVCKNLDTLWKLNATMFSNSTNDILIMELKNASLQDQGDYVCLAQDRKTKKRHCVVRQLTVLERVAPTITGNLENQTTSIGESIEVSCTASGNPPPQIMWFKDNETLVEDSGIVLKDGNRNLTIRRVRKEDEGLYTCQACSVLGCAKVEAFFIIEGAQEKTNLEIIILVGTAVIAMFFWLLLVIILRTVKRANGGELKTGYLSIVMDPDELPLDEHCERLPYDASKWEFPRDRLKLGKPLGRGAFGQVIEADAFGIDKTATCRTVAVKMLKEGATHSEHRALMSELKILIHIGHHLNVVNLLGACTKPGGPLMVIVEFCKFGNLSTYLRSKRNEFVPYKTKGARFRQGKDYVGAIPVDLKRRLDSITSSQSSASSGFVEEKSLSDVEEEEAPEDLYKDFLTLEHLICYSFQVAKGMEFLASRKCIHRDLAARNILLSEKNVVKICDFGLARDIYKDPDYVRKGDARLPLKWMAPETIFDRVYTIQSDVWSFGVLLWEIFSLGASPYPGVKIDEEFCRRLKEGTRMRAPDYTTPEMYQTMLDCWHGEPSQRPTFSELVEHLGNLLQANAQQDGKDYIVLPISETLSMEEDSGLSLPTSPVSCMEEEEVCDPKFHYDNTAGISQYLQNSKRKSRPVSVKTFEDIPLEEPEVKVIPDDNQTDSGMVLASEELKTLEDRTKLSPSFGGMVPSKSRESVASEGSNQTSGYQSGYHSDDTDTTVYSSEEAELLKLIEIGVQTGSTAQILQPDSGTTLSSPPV
# Stability = settings: in words
# Chain of Prkcn (O94806 whole entry, looked up, species assumed): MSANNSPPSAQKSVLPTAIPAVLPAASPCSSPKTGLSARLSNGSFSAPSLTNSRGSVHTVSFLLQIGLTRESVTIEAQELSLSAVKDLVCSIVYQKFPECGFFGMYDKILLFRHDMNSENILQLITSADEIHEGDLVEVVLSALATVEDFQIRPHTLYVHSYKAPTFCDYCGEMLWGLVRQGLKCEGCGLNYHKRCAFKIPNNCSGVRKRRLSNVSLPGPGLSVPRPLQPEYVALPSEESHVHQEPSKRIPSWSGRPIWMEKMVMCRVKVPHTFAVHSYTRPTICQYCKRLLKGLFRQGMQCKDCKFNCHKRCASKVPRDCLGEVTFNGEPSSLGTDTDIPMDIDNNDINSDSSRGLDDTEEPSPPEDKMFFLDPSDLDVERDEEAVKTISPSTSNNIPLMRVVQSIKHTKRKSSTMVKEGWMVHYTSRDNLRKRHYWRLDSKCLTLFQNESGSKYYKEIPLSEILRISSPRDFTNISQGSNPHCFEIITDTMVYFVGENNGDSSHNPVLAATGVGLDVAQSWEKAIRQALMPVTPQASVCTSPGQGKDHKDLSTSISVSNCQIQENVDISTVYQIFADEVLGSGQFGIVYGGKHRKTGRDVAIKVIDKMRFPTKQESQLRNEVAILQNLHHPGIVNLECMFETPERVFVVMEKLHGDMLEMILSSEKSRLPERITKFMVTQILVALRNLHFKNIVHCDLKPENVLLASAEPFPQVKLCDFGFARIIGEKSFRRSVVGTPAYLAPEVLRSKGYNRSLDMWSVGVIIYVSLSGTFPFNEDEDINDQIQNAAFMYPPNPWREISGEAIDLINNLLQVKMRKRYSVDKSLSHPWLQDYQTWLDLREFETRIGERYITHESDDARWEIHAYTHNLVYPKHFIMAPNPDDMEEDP
compound,measurement,setting,value
"CCOc1ccc2cc(-c3nn(C(C)(C)C)c(N)c3C(N)=O)cnc2c1 [Compound 39, 5-amino-1-(tert-butyl)-3-(7-ethoxyquinolin-3-yl)-1H-pyrazole-4-carboxamide]",signal in 24 off-target liability screen,[1],no signal was detected
same,Prkcn pKi,Prkcn,6.37
same,"oocysts shed in stool, difference between treated and vehicle groups",C. parvum Iowa strain,the difference was significant
same,hERG inhibitory activity,hERG,no hERG inhibitory activity
same,oral availability,Oral availability,higher oral availability
same,"inhibition of hPKs, level without inhibition",[2],> 3 µM
same,solubility,Solubility at pH 6.5,good solubility
same,Kdr pKi,Kdr,6.24
same,stability,Stability,good stability
